# ChEMBL document CHEMBL4325881, “Facile synthesis of 2-aryl 5-hydroxy benzo[d]oxazoles and their in vitro anti-proliferative effects on various cancer cell lines” (Bioorg Med Chem Lett, 2018)
# Legend:
# MDA-MB-231 = experiment: Cytotoxicity against human MDA-MB-231 cells assessed as reduction in cell viability after 48 hrs by MTT assay; format: functional, cell-based; conditions: MDA-MB-231, 48 h
# HaCaT = experiment: Cytotoxicity against human HaCaT cells assessed as reduction in cell viability after 48 hrs by MTT assay; format: cell-based
# A549 = experiment: Cytotoxicity against human A549 cells assessed as reduction in cell viability after 48 hrs by MTT assay; format: functional, cell-based; conditions: A549, 48 h
# HepG2 = experiment: Cytotoxicity against human HepG2 cells assessed as reduction in cell viability after 48 hrs by MTT assay; format: functional, cell-based; conditions: HepG2, 48 h
# [1] = Cytotoxicity against human […] cells assessed as reduction in cell viability after 48 hrs by MTT assay; format: functional, cell-based
# HeLa = experiment: Cytotoxicity against human HeLa cells assessed as reduction in cell viability after 48 hrs by MTT assay; format: functional, cell-based
Compound,IC50 (MDA-MB-231) [µM],IC50 (HaCaT) [µM],IC50 (A549) [µM],IC50 (HepG2) [µM],IC50 [1] [µM],IC50 (HeLa) [µM]
CC(=O)c1c(O)ccc2oc(-c3ccccc3C)nc12,30.1,8.94,20.1,11.7,17.5,19.2
O=Cc1c(O)ccc2oc(-c3cccc4ccccc34)nc12,31.2,10.7,28.4,27.7,21.2,30.1
O=Cc1c(O)ccc2oc(-c3ccccc3Cl)nc12,5.66,12.1,7.68,10.5,14,14.1
